From publication PMC11943482, “A Chalcone Synthase-like Bacterial Protein Catalyzes Heterocyclic C-Ring Cleavage of Naringenin to Alter Bioactivity Against Nuclear Receptors in Colonic Epithelial Cells” (Metabolites, 2025)

Target: nuclear receptor 4A1 (NR4A1) (Homo sapiens, UniProt P22736)
Assay: tryptophan fluorescence quenching with the isolated LBD ([…])
Assay type: binding

Sequence of nuclear receptor 4A1 (NR4A1) (P22736 360-598 limits assumed): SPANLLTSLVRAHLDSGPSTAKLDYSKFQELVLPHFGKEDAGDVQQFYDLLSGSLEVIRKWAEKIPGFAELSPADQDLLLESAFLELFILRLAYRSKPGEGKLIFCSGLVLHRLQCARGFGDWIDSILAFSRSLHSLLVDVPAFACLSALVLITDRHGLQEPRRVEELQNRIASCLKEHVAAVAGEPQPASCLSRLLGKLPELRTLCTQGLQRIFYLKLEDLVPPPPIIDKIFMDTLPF

O=C1C[C@@H](c2ccc(O)cc2)Oc2cc(O)cc(O)c21 [naringenin]
Kd: 4.5 µM
